Patent US9708314B2, “Heterocyclic amide compound” (NISSAN CHEMICAL INDUSTRIES, LTD., priority 2013, dated 2017)

Columns and labels:
Assay type in all cases: in vivo
[1] = test system: directly sowed Oryza sativa; assay: Test Example 3: effect on crop by application to foliage (Wagner pot, water depth 0.1-0.5 cm); details: Nineteenth Table; application to foliage; application herbicide amount 320 g/ha
Summary of the method: (§1)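 Foliar spray, 14-day-old plants, emulsion diluted to target g/ha; rated 3 wk post-application, 0–5 scale (0 ≤5%, 5 ≥90% herbicidal ratio). Greenhouse 25–30 °C, alluvial soil.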

[2] = test system: Echinochloa oryzacola Vasing.; assay: Test Example 1: herbicidal activity, application before weed generation in submerged conditions; details: Application herbicide amount 320 g/ha; Seventeenth Table
Excerpt: (§2) [Test Example 1] Herbicidal Activity Test by Application Before Weed Generation in Submerged Conditions After alluvial soil was placed into 1/10000 are of Wagner pot, water was poured and mixed to form a submerged condition having a water depth of 4 cm. Seeds of Echinochloa oryzacola Vasing., Scirpus juncoides, and Monochoria vaginalis were sowed in a mixed manner in the above pot and thereafter 2.5 leaf stage Oryza sativa seedling was transplanted. On the day of sowing seeds, the emulsion agent containing the compound of the present invention prepared in accordance with Formulation Example 2 was diluted with water so as to be a predetermined herbicide amount and the diluted compound was applied to the surface of the water. The pot was placed in a greenhouse of 25° C. to 30° C. to grow plant. Three weeks after the herbicide application, effects on each plant were investigated in accordance with the following criteria. Criteria 5 Herbicidal ratio of 90% or more (almost completely withered) 4 Herbicidal ratio of 70% or more and less than 90% 3 Herbicidal ratio of 40% or more and less than 70% 2 Herbicidal ratio of 20% or more and less than 40% 1 Herbicidal ratio of 5% or more and less than 20% 0 Herbicidal ratio of 5% or less (almost no effect) A: Echinochloa oryzicola Vasing., B: Scirpus juncoides, C: Monochoria vaginalis, D: Leptochloa chinensis, E: Cyperus difformis, F: Digitaria ciliaris, G: Setaria viridis, H: Echinochloa crus-galli var. crus-galli, I: Avena fatua, J: Alopecurus myosuroides, K: Lolium multiflorum Lam., L: Apera spica-venti., M: Abutilon theophrasti, N: Amaranthus retroflexus, O: Chenopodium album, P: Stellaria media, Q: Galium spurium, R: Veronica persica, a: transplanted Oryza sativa, b: directly sowed Oryza sativa, c: Zea mays, d: Glycine max, e: Triticum aestivum, f: Beta vulgaris ssp. vulgaris, and g: Brassica campestris L. The application herbicide amount (g/ha) means an amount that a concentration is adjusted so that, when an application amount is converted into per hectare (1 ha), the herbicide is applied by the number of grams (g) of the described value.

Scirpus juncoides = assay: as above; details: Application herbicide amount 320 g/ha; Seventeenth Table
Excerpt: as §2

Monochoria vaginalis = assay: as above; details: Application herbicide amount 320 g/ha; Seventeenth Table
Excerpt: as §2

[3] = test system: transplanted Oryza sativa; assay: Test Example 1: effect on crop, application before weed generation in submerged conditions; details: Application herbicide amount 320 g/ha; Seventeenth Table
Excerpt: as §2

Leptochloa chinensis = assay: Test Example 3: herbicidal effect by application to foliage (Wagner pot, water depth 0.1-0.5 cm); details: Nineteenth Table; application to foliage; application herbicide amount 320 g/ha
Summary of the method: as §1

[4] = test system: Echinochloa crus-galli var. crus-galli; assay: as above; details: Nineteenth Table; application to foliage; application herbicide amount 320 g/ha
Summary of the method: as §1

Cyperus difformis = assay: as above; details: Nineteenth Table; application to foliage; application herbicide amount 320 g/ha
Summary of the method: as §1

SMILES	b (effect on crop grade) [1]	A: Echinochloa oryzicola Vasing. (herbicidal effect grade) [2]	B: Scirpus juncoides (herbicidal effect grade) (Scirpus juncoides)	C: Monochoria vaginalis (herbicidal effect grade) (Monochoria vaginalis)	a: transplanted Oryza sativa (effect on crop grade) [3]	D (herbicidal effect grade) (Leptochloa chinensis)	H (herbicidal effect grade) [4]	E (herbicidal effect grade) (Cyperus difformis)
Cc1nnc(NC(=O)c2ccc(C(F)(F)F)n3c(-c4ccc(Cl)nc4)nnc23)o1 [1-054]	3 (Herbicidal ratio of 40% or more and less than 70%)	5 (Herbicidal ratio of 90% or more (almost completely withered))	3 (Herbicidal ratio of 40% or more and less than 70%)	4 (Herbicidal ratio of 70% or more and less than 90%)	2 (Herbicidal ratio of 20% or more and less than 40%)	5 (Herbicidal ratio of 90% or more (almost completely withered))	5 (Herbicidal ratio of 90% or more (almost completely withered))	5 (Herbicidal ratio of 90% or more (almost completely withered))
CCC(C)Sc1nnc2c(C(=O)Nc3nnc(C)o3)ccc(C(F)(F)F)n12 (stereo not shown) [1-094]	1 (Herbicidal ratio of 5% or more and less than 20%)	5 (Herbicidal ratio of 90% or more (almost completely withered))	5 (Herbicidal ratio of 90% or more (almost completely withered))	3 (Herbicidal ratio of 40% or more and less than 70%)	0 (Herbicidal ratio of 5% or less (almost no effect))	4 (Herbicidal ratio of 70% or more and less than 90%)	5 (Herbicidal ratio of 90% or more (almost completely withered))	4 (Herbicidal ratio of 70% or more and less than 90%)
Cc1nnc(NC(=O)c2ccc(C(F)(F)C(F)(F)F)n3c(C(C)C)nnc23)o1 [1-066]	0 (Herbicidal ratio of 5% or less (almost no effect))	5 (Herbicidal ratio of 90% or more (almost completely withered))	4 (Herbicidal ratio of 70% or more and less than 90%)	2 (Herbicidal ratio of 20% or more and less than 40%)	2 (Herbicidal ratio of 20% or more and less than 40%)	4 (Herbicidal ratio of 70% or more and less than 90%)	1 (Herbicidal ratio of 5% or more and less than 20%)	3 (Herbicidal ratio of 40% or more and less than 70%)
Cc1nnc(NC(=O)c2ccc(C(F)(F)F)n3c(N(C)c4ccccc4)nnc23)o1 [1-086]	0 (Herbicidal ratio of 5% or less (almost no effect))	5 (Herbicidal ratio of 90% or more (almost completely withered))	4 (Herbicidal ratio of 70% or more and less than 90%)	4 (Herbicidal ratio of 70% or more and less than 90%)	5 (Herbicidal ratio of 90% or more (almost completely withered))	5 (Herbicidal ratio of 90% or more (almost completely withered))	5 (Herbicidal ratio of 90% or more (almost completely withered))	5 (Herbicidal ratio of 90% or more (almost completely withered))
CCCSc1nnc2c(C(=O)Nc3nnc(C)o3)ccc(C(F)(F)F)n12 [1-087]	1 (Herbicidal ratio of 5% or more and less than 20%)	5 (Herbicidal ratio of 90% or more (almost completely withered))	–	3 (Herbicidal ratio of 40% or more and less than 70%)	0 (Herbicidal ratio of 5% or less (almost no effect))	5 (Herbicidal ratio of 90% or more (almost completely withered))	5 (Herbicidal ratio of 90% or more (almost completely withered))	5 (Herbicidal ratio of 90% or more (almost completely withered))
Cc1nnc(NC(=O)c2ccc(C(F)(F)F)n3c(C=O)nnc23)o1 [1-068]	1 (Herbicidal ratio of 5% or more and less than 20%)	2 (Herbicidal ratio of 20% or more and less than 40%)	3 (Herbicidal ratio of 40% or more and less than 70%)	3 (Herbicidal ratio of 40% or more and less than 70%)	0 (Herbicidal ratio of 5% or less (almost no effect))	5 (Herbicidal ratio of 90% or more (almost completely withered))	5 (Herbicidal ratio of 90% or more (almost completely withered))	5 (Herbicidal ratio of 90% or more (almost completely withered))
Cc1nnc(NC(=O)c2ccc(C(F)(F)F)n3c(CO)nnc23)o1 [1-067]	2 (Herbicidal ratio of 20% or more and less than 40%)	3 (Herbicidal ratio of 40% or more and less than 70%)	0 (Herbicidal ratio of 5% or less (almost no effect))	0 (Herbicidal ratio of 5% or less (almost no effect))	0 (Herbicidal ratio of 5% or less (almost no effect))	5 (Herbicidal ratio of 90% or more (almost completely withered))	5 (Herbicidal ratio of 90% or more (almost completely withered))	5 (Herbicidal ratio of 90% or more (almost completely withered))
CSCCc1nnc2c(C(=O)Nc3nnc(C)o3)ccc(C(F)(F)F)n12 [1-083]	2 (Herbicidal ratio of 20% or more and less than 40%)	2 (Herbicidal ratio of 20% or more and less than 40%)	3 (Herbicidal ratio of 40% or more and less than 70%)	3 (Herbicidal ratio of 40% or more and less than 70%)	0 (Herbicidal ratio of 5% or less (almost no effect))	5 (Herbicidal ratio of 90% or more (almost completely withered))	5 (Herbicidal ratio of 90% or more (almost completely withered))	5 (Herbicidal ratio of 90% or more (almost completely withered))
Cc1nnc(NC(=O)c2ccc(C(F)(F)F)n3c(SC(C)(C)C)nnc23)o1 [1-095]	1 (Herbicidal ratio of 5% or more and less than 20%)	5 (Herbicidal ratio of 90% or more (almost completely withered))	5 (Herbicidal ratio of 90% or more (almost completely withered))	5 (Herbicidal ratio of 90% or more (almost completely withered))	1 (Herbicidal ratio of 5% or more and less than 20%)	4 (Herbicidal ratio of 70% or more and less than 90%)	4 (Herbicidal ratio of 70% or more and less than 90%)	4 (Herbicidal ratio of 70% or more and less than 90%)
COc1ccc(Cc2nnc3c(C(=O)Nc4nnc(C)o4)ccc(C(F)(F)F)n23)cc1 [1-069]	1 (Herbicidal ratio of 5% or more and less than 20%)	5 (Herbicidal ratio of 90% or more (almost completely withered))	4 (Herbicidal ratio of 70% or more and less than 90%)	3 (Herbicidal ratio of 40% or more and less than 70%)	0 (Herbicidal ratio of 5% or less (almost no effect))	5 (Herbicidal ratio of 90% or more (almost completely withered))	5 (Herbicidal ratio of 90% or more (almost completely withered))	5 (Herbicidal ratio of 90% or more (almost completely withered))
